In data set [1] the test system is Candida albicans. The data set is described as follows: Antifungal activity against clinical isolate fluconazole-resistant Candida albicans Gu5 infected in BALB/c mouse assessed as reduction in renal neutrophil infiltration at 6 mg/kg, ip administered on day 1 and day 3 post fungal infection measured after 7 days by periodic acid-schiff/hematoxylin and eosin staining based microscopic analysis. To be noted: time 7.0 day. The format is functional, organism-based.

The subject of data set [2] is Candida albicans. The experiment in a line: Antifungal activity against clinical isolate Candida albicans SCUPC2R14MPG2A harbouring UPC2 mutation overexpressing […] Erg11 assessed as inhibition of fungal growth measured after 24 hrs by CLSI based microtiter plate analysis. Format: functional.
The test system of a further data set is Nakaseomyces glabratus. The data set is described as follows: Antifungal activity against clinical isolate fluconazole-resistant Candida glabrata CG2 assessed as inhibition of fungal growth measured after 24 hrs by CLSI based microtiter plate analysis. Format: functional.
Data set [3] has as its system Candida albicans. The experiment in a line: Antifungal activity against fluconazole-resistant clinical isolate Candida albicans Gu5 assessed as decrease in viable count measured after 24 hrs by colony-counting based time-killing kinetics assay. Format: functional, organism-based. To be noted: dose 2-4 µg/ml.
In data set [4] the test system is [Candida] auris. The data set is described as follows: Antifungal activity against clinical isolate fluconazole-resistant Candida auris CBS12774 assessed as decrease in viable count measured after 24 hrs by colony-counting based time-killing kinetics assay. The format is functional, organism-based. To be noted: Candidozyma auris, dose 2-4 µg/ml.
A short description of data set [5]: Selectivity ratio of IC50 for cytotoxicity against human HBE cells to MIC80 for antifungal activity against clinical isolate Candida albicans YEM15 overexpressing efflux pump CdrL and Cdr2. Format: toxicity, cell-based.
Data set [6] is described as follows: Selectivity ratio of IC50 for cytotoxicity against human HBE cells to MIC80 for antifungal activity against clinical isolate fluconazole-resistant Candida auris CBS12774. Format: toxicity, cell-based.
The nature of data set [7]: Selectivity ratio of IC50 for cytotoxicity against human HBE cells to MIC80 for antifungal activity against clinical isolate fluconazole-resistant Candida tropicalis CT10. The format is toxicity, cell-based.
The subject of data set [8] is Candida albicans. The experiment in a line: Inhibition of biofilm formation in wild-type Candida albicans SC5314 at 2 microg/ml measured after 24 hrs by alamar blue staining based colorimetric analysis. The format is functional, organism-based. To be noted: dose 2.0 µg/ml.
Data set [9] concerns [Candida] auris. The experiment in a line: Inhibition of biofilm formation in clinical isolate fluconazole-resistant Candida auris CBS12774 at 2 microg/ml measured after 24 hrs by alamar blue staining based colorimetric analysis. Format: functional, organism-based. To be noted: Candidozyma auris, dose 2.0 µg/ml. On the technique in general: The colour change of resazurin is a common sign of viable cells or microbes.

For data set [10], the system named is [Candida] auris. The data set is described as follows: Inhibition of biofilm formation in clinical isolate fluconazole-resistant Candida auris CBS12774 measured after 24 hrs by alamar blue staining based colorimetric analysis. The format is functional, organism-based. To be noted: Candidozyma auris, dose 4-32 µg/ml.
The test system of data set [11] is Candida albicans. The data set is described as follows: Antifungal activity against clinical isolate fluconazole-resistant Candida albicans Gu5 infected in BALB/c mouse assessed as fold reduction in kidney fungal burden at 6 mg/kg, ip administered on day 1 and day 3 post fungal infection measured after 7 days. Format: functional. To be noted: time 7 day.

In brackets after ≈: the same amount, converted by molar mass. Activity calls are given as the source filed them. The calls are words filed in the database; no cut-off is given here.

With `C=C1C(=O)[C@@]2(C)CC[C@@H]3[C@@]1(CC[C@H]1[C@@]3(C)CCC[C@@]1(C)C(=O)OCCCOc1ccc(C(=N)N)cc1)C2`, the result in the data set on Candida albicans [1] was Active. Besides, the MIC80 was 1 µg/mL (≈ 1.97 µM) in the data set on Candida albicans [2] and 2 µg/mL (≈ 3.95 µM) with Nakaseomyces glabratus. Besides, the Activity entry (with Candida albicans [3]; in data set [Candida] auris [4]) was “Dose-Dependent Effect” throughout. The selectivity ratio in data set [5], in data set [6] and in [7] was 8 in each case. In addition, the inhibition entry (in the data set with Candida albicans [8]; in [Candida] auris [9]) was “Active” in each case. In data set [Candida] auris [10], the inhibition entry is “Dose-Dependent Effect”. In addition, the “fold change (FC)” value with Candida albicans [11] was approximately 50.

The term MIC80 denotes an inhibitory concentration at the 80% level, which refers to growth in some studies and to a panel of isolates in others.

Values taken from ChEMBL document CHEMBL5365543, “Benzamidine Conjugation Converts Expelled Potential Active Agents into Antifungals against Drug-Resistant Fungi” (J Med Chem, 2023).
